This experiment concerns the target T1, human lck SH2 domain (Homo sapiens, UniProt P06239).
T1 construct: Cloning and expression of human lck SH2 domain containing tags and an enterokinase proteolytic cleavage site; made in house; host or cells: E. coli AR120
Kind of experiment: SH2 domain / pY peptide binding assay (ELISA-based, 96 well plate), lck SH2. The conditions noted are these: for IC50: cloned human SH2 domain fusion protein, 0.1 uM biotinylated pY peptide, Table I; for Ki: Ki calculated from IC50 by the expanded equation, Table II. As to the method:
The inhibitory activity of compounds at the different human SH2 domains was determined in vitro using SH2 domains expressed as fusion proteins in E. coli. The SH2 domains used herein were the human forms of the src SH2 domain, Grb2 SH2 domain, lck SH2 domain, fyn SH2 domain, SH-PTP2 SH2 domain, p85 SH2 domain and hcp SH2 domain.
The fusion proteins containing the src, lck and hcp SH2 domains were expressed as the general sequence: DET1-DET2-spacer-ek-SH2, where DETI, DET2, spacer, ek and SH2 are as described below. DET1 ("defined epitope tag 1") (SEQ ID NO: 1) is an 11 amino acid sequence found in the Human Immunodeficiency Virus Type 1 (HIV-1) envelope protein gp120 (or gp160). Monoclonal antibodies to various epitopes of HIV-1 gp120 (or gp160) are known in the art, see, for example U.S. Patent 5,166,050. One preferred example is monoclonal antibody 178.1 (see, e.g., Thiriart et al., J. Immunol., 143:1832-1836 (1989)), which was prepared by immunization of mice with a yeast-expressed HIV-1 gp160 molecule from strain BH10 (Ratner et al., Nature, 313:277-284 (1985)). This tag was used for detection of expression (by Western blot), for purification of the protein (by affinity chromatography), and for configuring assays in which the fusion protein was captured or immobilized using the 178.1 antibody. DET2 is a hexahistidine sequence tag (SEQ ID NO: 2) which binds to nickel-containing resins and was used for purification purposes. Spacer (SEQ ID NO: 3) was utilized to design a BamH1 restriction site at the indicated position of the construct. The term -ekrefers to a recognition sequence (SEQ ID NO: 4) for the enterokinase protease which provides for the optional removal of the tags from the SH2 domain, thus producing an SH2 domain that contains no extraneous amino acids. SH2 domains which contain no extraneous amino acids are preferable to tagged protein for crystallography studies. SH2 refers to the SH2 domains of different proteins.
Cloning and expression of human lck SH2 domain containing tags and an enterokinase proteolytic cleavage site (DET1-DET2-spacer-ek-lck SH2).
A DNA sequence encoding protein ek-lck SH2 was PCR amplified from a cDNA clone containing the human lck gene (Genbank accession number M36881) using the following primers: [formula]
The PCR product was digested with BamHI and XbaI, followed by isolation of the digested fragment on an agarose gel. The fragment was ligated into BamHI-XbaI-digested expression vector containing the tagged chicken src gene DET1-DET2-spacer-SH2 described in Procedure 1 above. In that vector, the BamHI site is located in between the coding regions for DET2 and SH2, and the XbaI site is located after the 3' end of the SH2 coding region. Thus, the ek-lck SH2 sequence replaced the src SH2 sequence in the above vector. The ligation reaction was used to transform E. coli MM294cI^+. The construct containing […] was confirmed by DNA sequencing (SEQ ID NO: 6) and induced in E. coli strain AR120 as described in Procedure 1 above. A Coomassie-Blue-stained, Western-blot-positive induced protein band with an apparent molecular weight of 17,000 was observed after nalidixic acid induction.
Cells were lysed at neutral pH by sonication in the presance of lysozyme. After centrifugation, the soluble extract was chromatographed on a Ni^++NTA column. After washing the column with equilibration buffer (Tris buffer pH 8 containing 0.5 M NaCl) and the same buffer containing 15 mM imidazole, the protein was eluted in highly purified form with 25 mM imidazole in equilibration buffer.
The binding assays for the SH2 domains and pY peptides were performed in an ELISA-based 96 well plate assay. In Millipore 96 well filter plates, hydrophilic Durapore® (pore size 0.65um Cat. No. MADVN6550), was added 2 ul (50% suspension) of Protein-G Sepharose (available from Pharmacia of N.J. Cat. No. 17-0618-01) and either 2 ul of 2 mg/ml of MAB178. […]

T1 sequence (P06239 127-224 limits assumed): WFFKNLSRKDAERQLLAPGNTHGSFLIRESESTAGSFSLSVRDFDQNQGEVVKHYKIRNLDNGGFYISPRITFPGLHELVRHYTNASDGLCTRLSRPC

`Cc1nnc(SCC2=C(C(=O)O)N3C(=O)[C@@H](NC(=O)C(N)c4ccc(C(=O)O)cc4)[C@H]3SC2)s1` (stereo partly drawn) [Compound 1, 7-[D,L-α-Amino-α-(4-carboxyphenyl)acetamido]-3-[2-(5-methyl-1,3,4-thiadiazolyl)thiomethyl]Δ^3-cephem-4-carboxylic Acid] yielded an IC50 of 6 µM. For the compound `Cc1ccc(C(=O)c2ccc(C(=O)c3ccc(CC=O)cc3)cc2)cc1` [Compound 4, 4-[4-(4-Methylbenzoyl)benzoyl]phenylacetaldehyde], the Ki was 163 µM and the IC50 stood at 163 µM. Regarding “4-acetamido-benzamido-trans-4-methyl-cyclohexyl-N-1-(amino-R-2-(methoxy methyl)-pyrrolidine) carboxamide [Compound 8]”, the Ki was 360 µM and the IC50 came to 126 µM. `CCCCCCNC(=O)[C@H]1CC[C@H](CNC(=O)c2ccc([N+](=O)[O-])cc2)CC1` [Compound 7, 4-nitro-benzamido-trans-4-methyl-cyclohexyl-N-hexyl carboxamide]: the Ki is 320 µM and the IC50 is 383 µM.

With `CCCNC(=O)[C@H]1CC[C@H](CNC(=O)/C=C/c2ccc(C=O)cc2)CC1` [Compound 9, 4-formyl-E-cinnamido-trans-4-methyl-cyclohexyl-N-(propyl) carboxamide], the Ki is 146 µM and the IC50 was 200 µM. On the same counts, the results for `Cc1nc2sc3c(c2c2[nH][nH]c(=O)c12)CCC1(C3)OCCO1` [Compound 3, 8,8-Ethylenedioxy-2,3,7,8,9,10-hexahydro-4-methyl-1H-benzo[b]thieno[2,3-b]pyrazolo[3,4-d]pyridin-3-one] are 11 µM and 22.9 µM. On the same counts, the results for `N[C@@H](Cc1cc(Br)c(Oc2ccc(O)c(Cc3ccc(O)nn3)c2)c(Br)c1)C(=O)O` [Compound 2, L-3,5-Dibromo-3'-(6-oxo-3(1H)-pyridazinylmethyl)-thyronine] are above 1000 µM and above 300 µM. For the compound `Cc1nc2sc3c(c2c2c1c(=O)[nH]n2C)CCC1(C3)OCCO1` [Compound 5, 1,4-Dimethyl-8,8-ethylenedioxy-2,3,7,8,9,10-hexahydro-1H-benzo[b]thieno[2,3-b]pyrazolo[3,4-d]pyridin-3-one], the Ki was 149 µM and the IC50 was determined as 100 µM.

By IC50 is commonly meant the concentration at which inhibition is half-maximal. A higher IC50 goes with lower potency. The term Ki denotes a measure of affinity in units of concentration, obtained from inhibition or displacement.

Values taken from patent publication EP0727211A1, “Use of src SH2 specific compounds to treat a bone resorption disease” (SMITHKLINE BEECHAM CORPORATION, priority 1995, dated 1996).
